Results: patent US11000033B2, “Ketone or oxime compound, and herbicide” (NISSAN CHEMICAL CORPORATION, priority 2014, dated 2021)

How the values were obtained:
Assay type in all cases: in vivo
[1] = system: Echinochloa crus-galli var. crus-galli; assay: Test Example 3: herbicidal effect by foliage application, Wagner pot (symbol H); conditions: application herbicide amount 320 g/ha
How it was run: (§1)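 The compound, formulated as an emulsion and diluted with water to a predetermined rate, is applied uniformly to leaves of two-week-old seedlings growing in submerged alluvial soil at 25–30 °C. Rice is included. Each plant is assessed 3 weeks later using defined criteria.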

[2] = system: rice plant; assay: Test Example 5: effect on crop by foliage application, plastic box (symbol b); conditions: 320 g/ha, 3 weeks after application
How it was run: (§2)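 Plants were raised from seed in a greenhouse (25° C. to 30° C.) after sowing in a plastic box of sterilized diluvial soil.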

[3] = system: transplanted rice plant; assay: Test Example 1: effect on crop, application before weed generation in submerged conditions (symbol a); conditions: application herbicide amount 320 g/ha
How it was run: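 Rice at 2.5 leaf stage transplanted into submerged soil (4 cm depth) sown with three weed species; herbicide applied before weed emergence.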

[4] = system: Abutilon theophrasti; assay: Test Example 4: herbicidal effect by soil treatment (symbol M); conditions: application herbicide amount 320 g/ha
How it was run: (§3)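 Seeds were sown in sterilized diluvial soil, covered with about 1.5 cm of soil, and the soil surface was sprayed with a water-diluted emulsion of the compound at a predetermined rate. Plants grew in a greenhouse at 25° C. to 30° C.; effects were scored visually 3 weeks after application.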

[5] = system: Stellaria media; assay: Test Example 4: herbicidal effect by soil treatment (symbol P); conditions: application herbicide amount 320 g/ha
How it was run: as §3

[6] = system: Leptochloa chinensis; assay: Test Example 3: herbicidal effect by foliage application, Wagner pot (symbol D); conditions: application herbicide amount 320 g/ha
How it was run: as §1

[7] = system: soybean; assay: Test Example 5: effect on crop by foliage application, plastic box (symbol d); conditions: 320 g/ha, 3 weeks after application
How it was run: as §2

[8] = system: Scirpus juncoides; assay: Test Example 2: herbicidal activity, application during weed generation in submerged conditions (symbol B); conditions: Table 23; application herbicide amount 320 g/ha; grade 0-5 by criteria of Test Example 1
How it was run: (§4)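 Treatment timing was the one- to two-leaf stage, with diluted emulsifiable compound dropped onto the paddy water (depth 4 cm) over alluvial soil. All three species grew from a mixed sowing in a 25° C. to 30° C. greenhouse. Injury was judged by eye 3 weeks on.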

[9] = system: wheat; assay: Test Example 4: effect on crop by soil treatment (symbol e); conditions: application herbicide amount 320 g/ha
How it was run: (§5)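 Diluvial soil (sterilized) in boxes; seeds placed spot-wise alongside weed species; ~1.5 cm covering soil. Greenhouse, 25–30° C.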

[10] = system: corn; assay: Test Example 4: effect on crop by soil treatment (symbol c); conditions: application herbicide amount 320 g/ha
How it was run: as §5

[11] = system: soybean; assay: Test Example 4: effect on crop by soil treatment (symbol d); conditions: application herbicide amount 320 g/ha
How it was run: as §5

[12] = system: beet; assay: Test Example 5: effect on crop by foliage application, plastic box (symbol f); conditions: 320 g/ha, 3 weeks after application
How it was run: as §2

[13] = system: Monochoria vaginalis; assay: Test Example 1: herbicidal activity, application before weed generation in submerged conditions (symbol C); conditions: application herbicide amount 320 g/ha
How it was run: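 Weed control was rated three weeks after treatment on a 0–5 scale, from 5% or lower up to 90% or more. Pre-emergence water-surface application of diluted emulsion at a predetermined rate was made on the day of sowing, in flooded (4 cm water) pots containing rice seedlings, kept at 25–30 °C under glass.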

[14] = system: corn; assay: Test Example 5: effect on crop by foliage application, plastic box (symbol c); conditions: 320 g/ha, 3 weeks after application
How it was run: as §2

[15] = system: Echinochloa oryzacola Vasing.; assay: Test Example 2: herbicidal activity, application during weed generation in submerged conditions (symbol A); conditions: Table 23; application herbicide amount 320 g/ha; grade 0-5 by criteria of Test Example 1
How it was run: as §4

[16] = system: Cyperus difformis; assay: Test Example 3: herbicidal effect by foliage application, Wagner pot (symbol E); conditions: application herbicide amount 320 g/ha
How it was run: as §1

CON=C(C)CC1CC(O)=C(c2c(C)cc(-c3ccc(OC(F)(F)F)cc3)cc2C)C1=O (mixture of isomers) [6-056]
herbicidal effect on H (Echinochloa crus-galli var. crus-galli), grade 0-5 [1]: 4 (Herbicidal ratio of 70% or higher and lower than 90%)
b: directly sowed rice plant, effect on crop (criteria of Test Example 1) [2]: 2 (Herbicidal ratio of 20% or higher and lower than 40%)
Effect grade on crop, a: transplanted rice plant [3]: 0 (Herbicidal ratio of 5% or lower (almost no effect))
M: Abutilon theophrasti, herbicidal effect grade [4]: 0 (Herbicidal ratio of 5% or lower (almost no effect))
P: Stellaria media, herbicidal effect grade [5]: 0 (Herbicidal ratio of 5% or lower (almost no effect))
herbicidal effect on D (Leptochloa chinensis), grade 0-5 [6]: 5 (Herbicidal ratio of 90% or more (almost completely withered))
d: soybean, effect on crop (criteria of Test Example 1) [7]: 0 (Herbicidal ratio of 5% or lower (almost no effect))
Herbicidal effect grade, B: Scirpus juncoides [8]: 0 (Herbicidal ratio of 5% or lower (almost no effect))
e: wheat, effect on crop grade [9]: 0 (Herbicidal ratio of 5% or lower (almost no effect))
c: corn, effect on crop grade [10]: 0 (Herbicidal ratio of 5% or lower (almost no effect))
d: soybean, effect on crop grade [11]: 0 (Herbicidal ratio of 5% or lower (almost no effect))
f: beet, effect on crop (criteria of Test Example 1) [12]: 0 (Herbicidal ratio of 5% or lower (almost no effect))
Herbicidal effect grade, C: Monochoria vaginalis [13]: 0 (Herbicidal ratio of 5% or lower (almost no effect))
c: corn, effect on crop (criteria of Test Example 1) [14]: 1 (Herbicidal ratio of 5% or higher and lower than 20%)
Herbicidal effect grade, A: Echinochloa oryzacola Vasing. [15]: 1 (Herbicidal ratio of 5% or higher and lower than 20%)
herbicidal effect on E, grade 0-5 [16]: 3 (Herbicidal ratio of 40% or higher and lower than 70%)

CON=C(C)CC1CC(OC(=O)COc2ccccc2)=C(c2c(C)cc(C)cc2OC)C1=O (centres unmarked) [6-091]
herbicidal effect on H (Echinochloa crus-galli var. crus-galli), grade 0-5 [1]: 5 (Herbicidal ratio of 90% or more (almost completely withered))
b: directly sowed rice plant, effect on crop (criteria of Test Example 1) [2]: 5 (Herbicidal ratio of 90% or more (almost completely withered))
Effect grade on crop, a: transplanted rice plant [3]: 5 (Herbicidal ratio of 90% or more (almost completely withered))
Herbicidal effect grade, M: Abutilon theophrasti [4]: 5 (Herbicidal ratio of 90% or more (almost completely withered))
Herbicidal effect grade, P: Stellaria media [5]: 4 (Herbicidal ratio of 70% or higher and lower than 90%)
herbicidal effect on D (Leptochloa chinensis), grade 0-5 [6]: 5 (Herbicidal ratio of 90% or more (almost completely withered))
d: soybean, effect on crop (criteria of Test Example 1) [7]: 4 (Herbicidal ratio of 70% or higher and lower than 90%)
Herbicidal effect grade, B: Scirpus juncoides [8]: 5 (Herbicidal ratio of 90% or more (almost completely withered))
Effect on crop grade, e: wheat [9]: 5 (Herbicidal ratio of 90% or more (almost completely withered))
Effect on crop grade, c: corn [10]: 5 (Herbicidal ratio of 90% or more (almost completely withered))
Effect on crop grade, d: soybean [11]: 1 (Herbicidal ratio of 5% or higher and lower than 20%)
f: beet, effect on crop (criteria of Test Example 1) [12]: 3 (Herbicidal ratio of 40% or higher and lower than 70%)
Herbicidal effect grade, C: Monochoria vaginalis [13]: 4 (Herbicidal ratio of 70% or higher and lower than 90%)
c: corn, effect on crop (criteria of Test Example 1) [14]: 5 (Herbicidal ratio of 90% or more (almost completely withered))
Herbicidal effect grade, A: Echinochloa oryzacola Vasing. [15]: 5 (Herbicidal ratio of 90% or more (almost completely withered))
herbicidal effect on E, grade 0-5 [16]: 5 (Herbicidal ratio of 90% or more (almost completely withered))

CON=C(C)CC1CC(O)=C(c2c(C)cc(-c3ccc(F)c(Cl)c3)cc2C)C1=O (centres unmarked) [6-085]
herbicidal effect on H (Echinochloa crus-galli var. crus-galli), grade 0-5 [1]: 5 (Herbicidal ratio of 90% or more (almost completely withered))
b: directly sowed rice plant, effect on crop (criteria of Test Example 1) [2]: 5 (Herbicidal ratio of 90% or more (almost completely withered))
Effect grade on crop, a: transplanted rice plant [3]: 5 (Herbicidal ratio of 90% or more (almost completely withered))
Herbicidal effect grade, M: Abutilon theophrasti [4]: 4 (Herbicidal ratio of 70% or higher and lower than 90%)
Herbicidal effect grade, P: Stellaria media [5]: 5 (Herbicidal ratio of 90% or more (almost completely withered))
herbicidal effect on D (Leptochloa chinensis), grade 0-5 [6]: 5 (Herbicidal ratio of 90% or more (almost completely withered))
d: soybean, effect on crop (criteria of Test Example 1) [7]: 5 (Herbicidal ratio of 90% or more (almost completely withered))
Herbicidal effect grade, B: Scirpus juncoides [8]: 4 (Herbicidal ratio of 70% or higher and lower than 90%)
Effect on crop grade, e: wheat [9]: 3 (Herbicidal ratio of 40% or higher and lower than 70%)
Effect on crop grade, c: corn [10]: 1 (Herbicidal ratio of 5% or higher and lower than 20%)
Effect on crop grade, d: soybean [11]: 5 (Herbicidal ratio of 90% or more (almost completely withered))
f: beet, effect on crop (criteria of Test Example 1) [12]: 4 (Herbicidal ratio of 70% or higher and lower than 90%)
Herbicidal effect grade, C: Monochoria vaginalis [13]: 0 (Herbicidal ratio of 5% or lower (almost no effect))
c: corn, effect on crop (criteria of Test Example 1) [14]: 3 (Herbicidal ratio of 40% or higher and lower than 70%)
Herbicidal effect grade, A: Echinochloa oryzacola Vasing. [15]: 5 (Herbicidal ratio of 90% or more (almost completely withered))
herbicidal effect on E, grade 0-5 [16]: 5 (Herbicidal ratio of 90% or more (almost completely withered))

CON=C(C)CC1CC(O)=C(c2c(C)cc(-c3cc(Cl)cc(Cl)c3)cc2C)C1=O (centres unmarked) [6-087]
herbicidal effect on H (Echinochloa crus-galli var. crus-galli), grade 0-5 [1]: 5 (Herbicidal ratio of 90% or more (almost completely withered))
b: directly sowed rice plant, effect on crop (criteria of Test Example 1) [2]: 1 (Herbicidal ratio of 5% or higher and lower than 20%)
Effect grade on crop, a: transplanted rice plant [3]: 2 (Herbicidal ratio of 20% or higher and lower than 40%)
Herbicidal effect grade, M: Abutilon theophrasti [4]: 0 (Herbicidal ratio of 5% or lower (almost no effect))
Herbicidal effect grade, P: Stellaria media [5]: 0 (Herbicidal ratio of 5% or lower (almost no effect))
herbicidal effect on D (Leptochloa chinensis), grade 0-5 [6]: 5 (Herbicidal ratio of 90% or more (almost completely withered))
d: soybean, effect on crop (criteria of Test Example 1) [7]: 3 (Herbicidal ratio of 40% or higher and lower than 70%)
Herbicidal effect grade, B: Scirpus juncoides [8]: 0 (Herbicidal ratio of 5% or lower (almost no effect))
Effect on crop grade, e: wheat [9]: 0 (Herbicidal ratio of 5% or lower (almost no effect))
Effect on crop grade, c: corn [10]: 0 (Herbicidal ratio of 5% or lower (almost no effect))
Effect on crop grade, d: soybean [11]: 3 (Herbicidal ratio of 40% or higher and lower than 70%)
f: beet, effect on crop (criteria of Test Example 1) [12]: 0 (Herbicidal ratio of 5% or lower (almost no effect))
Herbicidal effect grade, C: Monochoria vaginalis [13]: 0 (Herbicidal ratio of 5% or lower (almost no effect))
c: corn, effect on crop (criteria of Test Example 1) [14]: 0 (Herbicidal ratio of 5% or lower (almost no effect))
Herbicidal effect grade, A: Echinochloa oryzacola Vasing. [15]: 2 (Herbicidal ratio of 20% or higher and lower than 40%)
herbicidal effect on E, grade 0-5 [16]: 0 (Herbicidal ratio of 5% or lower (almost no effect))

CON=C(C)CC1CC(O)=C(c2c(C)cc(Br)cc2OC)C1=O (centres unmarked) [6-076, 2-(4-bromo-2-methoxy-6-methylphenyl)-3-hydroxy-5-{2-(methoxyimino)propyl}cyclopent-2-enone]
herbicidal effect on H (Echinochloa crus-galli var. crus-galli), grade 0-5 [1]: 5 (Herbicidal ratio of 90% or more (almost completely withered))
b: directly sowed rice plant, effect on crop (criteria of Test Example 1) [2]: 5 (Herbicidal ratio of 90% or more (almost completely withered))
Effect grade on crop, a: transplanted rice plant [3]: 5 (Herbicidal ratio of 90% or more (almost completely withered))
M: Abutilon theophrasti, herbicidal effect grade [4]: 5 (Herbicidal ratio of 90% or more (almost completely withered))
P: Stellaria media, herbicidal effect grade [5]: 0 (Herbicidal ratio of 5% or lower (almost no effect))
herbicidal effect on D (Leptochloa chinensis), grade 0-5 [6]: 5 (Herbicidal ratio of 90% or more (almost completely withered))
d: soybean, effect on crop (criteria of Test Example 1) [7]: 1 (Herbicidal ratio of 5% or higher and lower than 20%)
Herbicidal effect grade, B: Scirpus juncoides [8]: 1 (Herbicidal ratio of 5% or higher and lower than 20%)
e: wheat, effect on crop grade [9]: 0 (Herbicidal ratio of 5% or lower (almost no effect))
c: corn, effect on crop grade [10]: 5 (Herbicidal ratio of 90% or more (almost completely withered))
d: soybean, effect on crop grade [11]: 0 (Herbicidal ratio of 5% or lower (almost no effect))
f: beet, effect on crop (criteria of Test Example 1) [12]: 0 (Herbicidal ratio of 5% or lower (almost no effect))
Herbicidal effect grade, C: Monochoria vaginalis [13]: 2 (Herbicidal ratio of 20% or higher and lower than 40%)
c: corn, effect on crop (criteria of Test Example 1) [14]: 5 (Herbicidal ratio of 90% or more (almost completely withered))
Herbicidal effect grade, A: Echinochloa oryzacola Vasing. [15]: 5 (Herbicidal ratio of 90% or more (almost completely withered))
herbicidal effect on E, grade 0-5 [16]: 5 (Herbicidal ratio of 90% or more (almost completely withered))
